# Data taken from patent publication US12145913B2, “Inhibition of Olig2 activity” (Curtana Pharmaceuticals, Inc., priority 2016, dated 2024).
# System: GBM8 human glioblastoma cells
# Assay: GBM8 viability assay (Cell Titer Glo)
# Format: cell-based
# Details: 72 h, Table 1, 3 days incubation, luminescence
# How it was run: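 Patient-derived GBM4 and GBM8 neurosphere cells, 4000 per well in EGF/bFGF/heparin-supplemented NeuroCult medium, were exposed to compound (added in 1% DMSO solution) for 3 days at 37° C. Growth was read by CellTiter-Glo luminescence versus DMSO wells, and IC50s came from 4-parameter fits of serial dilutions.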
row,IC50 [nM],SMILES
1,< 500,CCNc1cc(C)nc(NC(=O)Nc2ccc3ccccc3c2)n1 [Compound 19]
2,< 500,"Cc1cc(NCCNS(C)(=O)=O)nc(NC(=O)Nc2ccc3ccccc3c2)n1 [Compound 36, N-(2-((6-methyl-2-(3-(naphthalen-2-yl)ureido)pyrimidin-4-yl)amino)ethyl)methanesulfonamide]"
3,< 500,"Cc1cc(NCCN)nc(NC(=O)Nc2ccc(OC(F)(F)F)c(Cl)c2)n1 [Compound 150, 1-(4-((2-aminoethyl)amino)-6-methylpyrimidin-2-yl)-3-(3-chloro-4-(trifluoromethoxy)phenyl)urea]"
4,< 500,"CC(=O)NCCNc1cc(C)nc(NC(=O)Nc2ccc3ccccc3c2)n1 [Compound 35, N-(2-((6-methyl-2-(3-(naphthalen-2-yl)ureido)pyrimidin-4-yl)amino)ethyl)acetamide]"
5,< 500,"Cc1cc(NCCc2ccc[nH]2)nc(NC(=O)Nc2ccc3ccccc3c2)n1 [Compound 24, 1-(4-((2-(1H-pyrrol-2-yl)ethyl)amino)-6-methylpyrimidin-2-yl)-3-(naphthalen-2-yl)urea]"
6,500 to 5000,"Cc1cc(NCCN(C)C)nc(NC(=O)Nc2ccc3cnccc3c2)n1 [Compound 51, 1-(4-((2-(dimethylamino)ethyl)amino)-6-methylpyrimidin-2-yl)-3-(isoquinolin-6-yl)urea]"
7,< 500,"Cc1cc(NCCNS(C)(=O)=O)nc(NC(=O)Nc2ccc(OC(C)C)cc2)n1 [Compound 139, N-(2-((2-(3-(4-isopropoxyphenyl)ureido)-6-methylpyrimidin-4-yl)amino)ethyl)methanesulfonamide]"
8,< 500,"Cc1cc(NCCCN)nc(NC(=O)Nc2ccc3ccccc3c2)n1 [Compound 4, 1-(4-((3-aminopropyl)amino)-6-methylpyrimidin-2-yl)-3-(naphthalen-2-yl)urea]"
9,500 to 5000,"Cc1cc(NCCCN)nc(NC(=O)Nc2ccc3ncccc3c2)n1 [Compound 108, 1-(4-((3-aminopropyl)amino)-6-methylpyrimidin-2-yl)-3-(quinolin-6-yl)urea]"
10,< 500,Cc1cc(NCCCCN)nc(NC(=O)Nc2ccc3ccccc3c2)n1 [Compound 10]
11,500 to 5000,"Cc1cc(NCCN)nc(NC(=O)Nc2ccc3ncccc3c2)n1 [Compound 107, 1-(4-((2-aminoethyl)amino)-6-methylpyrimidin-2-yl)-3-(quinolin-6-yl)urea]"
12,500 to 5000,"Cc1cc(NCCNC(=O)C(F)(F)F)nc(NC(=O)Nc2ccc3ccccc3c2)n1 [Compound 38, 2,2,2-trifluoro-N-(2-((6-methyl-2-(3-(naphthalen-2-yl)ureido)pyrimidin-4-yl)amino)ethyl)acetamide]"
13,< 500,"Cc1cc(NCCCN(C)C)nc(NC(=O)Nc2ccc(OC(C)C)cc2)n1 [Compound 136, 1-(4-((3-(dimethylamino)propyl)amino)-6-methylpyrimidin-2-yl)-3-(4-isopropoxyphenyl)urea]"
14,500 to 5000,"Cc1cc(NCCCN)nc(NC(=O)Nc2ccc3ccncc3c2)n1 [Compound 117, 1-(4-((3-aminopropyl)amino)-6-methylpyrimidin-2-yl)-3-(isoquinolin-7-yl)urea]"
15,500 to 5000,"Cc1cc(NCCN)nc(NC(=O)Nc2cc3ccccc3cn2)n1 [Compound 90, 1-(4-((2-aminoethyl)amino)-6-methylpyrimidin-2-yl)-3-(isoquinolin-3-yl)urea]"
16,500 to 5000,"Cc1cc(NCCN(C)C)nc(NC(=O)Nc2ccc3ncccc3c2)n1 [Compound 106, 1-(4-((2-(dimethylamino)ethyl)amino)-6-methylpyrimidin-2-yl)-3-(quinolin-6-yl)urea]"

row,IC50 [nM],SMILES
1,< 500,"Cc1cc(NCCN(C)C)nc(NC(=O)Nc2ccc(OC(C)C)cc2)n1 [Compound 137, 1-(4-((2-(dimethylamino)ethyl)amino)-6-methylpyrimidin-2-yl)-3-(4-isopropoxyphenyl)urea]"
2,< 500,"Cc1cc(NCCO)nc(NC(=O)Nc2ccc3cnccc3c2)n1 [Compound 60, 1-(4-((2-hydroxyethyl)amino)-6-methylpyrimidin-2-yl)-3-(isoquinolin-6-yl)urea]"
3,500 to 5000,"CN(C)CCCNc1nc(NC(=O)Nc2ccc(Cl)c(Cl)c2)ncc1F [Compound 168, 1-(3,4-dichlorophenyl)-3-(4-((3-(dimethylamino)propyl)amino)-5-fluoropyrimidin-2-yl)urea]"
4,< 500,Cc1cc(NCC(C)O)nc(NC(=O)Nc2ccc3ccccc3c2)n1 (stereo not drawn) [Compound 14]
5,< 500,"CONc1cc(C)nc(NC(=O)Nc2ccc3ccccc3c2)n1 [Compound 44, 1-(4-(methoxyamino)-6-methylpyrimidin-2-yl)-3-(naphthalen-2-yl)urea]"
6,< 500,"Cc1cc(NO)nc(NC(=O)Nc2ccc3ccccc3c2)n1 [Compound 45, 1-(4-(hydroxyamino)-6-methylpyrimidin-2-yl)-3-(naphthalen-2-yl)urea]"
7,5000 to 30000,"Cc1cc(NCCCN(C)C)nc(NC(=O)Nc2cc3ccccc3cn2)n1 [Compound 89, 1-(4-((3-(dimethylamino)propyl)amino)-6-methylpyrimidin-2-yl)-3-(isoquinolin-3-yl)urea]"
8,< 500,"Cc1cc(NCCCN(C)C)nc(NC(=O)Nc2ccc3ccccc3c2)n1 [Compound 3, 1-(4-((3-(dimethylamino)propyl)amino)-6-methylpyrimidin-2-yl)-3-(naphthalen-2-yl)urea]"
9,500 to 5000,"CC(C)c1cc(NO)nc(NC(=O)Nc2ccc3ccccc3c2)n1 [Compound 187, 1-(4-(hydroxyamino)-6-isopropylpyrimidin-2-yl)-3-(naphthalen-2-yl)urea]"
10,< 500,"CNCCCNc1cc(C)nc(NC(=O)Nc2ccc3ccccc3c2)n1 [Compound 31, 1-(4-methyl-6-((3-(methylamino)propyl)amino)pyrimidin-2-yl)-3-(naphthalen-2-yl)urea]"
11,500 to 5000,"Cc1cc(NCCN)nc(NC(=O)Nc2ccc3ccncc3c2)n1 [Compound 116, 1-(4-((2-aminoethyl)amino)-6-methylpyrimidin-2-yl)-3-(isoquinolin-7-yl)urea]"
12,< 500,"CC(=O)NCCNc1cc(C)nc(NC(=O)Nc2ccc3cnccc3c2)n1 [Compound 67, N-(2-((2-(3-(isoquinolin-6-yl)ureido)-6-methylpyrimidin-4-yl)amino)ethyl)acetamide]"
13,< 500,"CCNc1cc(C)nc(NC(=O)Nc2ccc(-c3ccccc3)cc2)n1 [Compound 126, 1-([1,1′-biphenyl]-4-yl)-3-(4-(ethylamino)-6-methylpyrimidin-2-yl)urea]"
14,< 500,Cc1cc(NCCO)nc(NC(=O)Nc2ccc3ccccc3c2)n1 [Compound 8]
15,< 500,"CC(=O)NCCNc1cc(C)nc(NC(=O)Nc2ccc3occc3c2)n1 [Compound 84, N-(2-((2-(3-(benzofuran-5-yl)ureido)-6-methylpyrimidin-4-yl)amino)ethyl)acetamide]"

# Same assay, conditions: 72 h, Table 2, 3 days incubation, luminescence
row,IC50 [nM],SMILES
1,500 to 5000,"O=C(Nc1ccc(Cl)c(Cl)c1)Nc1nc(NO)cc(C2CC2)n1 [Compound 207, 1-(4-cyclopropyl-6-(hydroxyamino)pyrimidin-2-yl)-3-(3,4-dichlorophenyl)urea]"
2,5000 to 30000,"CC(C)c1cc(N)nc(NC(=O)Nc2ccc3ccccc3c2)n1 [Compound 190, 1-(4-amino-6-isopropylpyrimidin-2-yl)-3-(naphthalen-2-yl)urea]"
3,5000 to 30000,"CNCCCNc1cc(C2CC2)nc(NC(=O)Nc2ccc(Cl)c(Cl)c2)n1 [Compound 206, 1-(4-cyclopropyl-6-((3-(methylamino)propyl)amino)pyrimidin-2-yl)-3-(3,4-dichlorophenyl)urea]"

# System: GBM4 human glioblastoma cells
# Assay: GBM4 viability assay (Cell Titer Glo)
# Format: cell-based
# Details: 72 h, Table 1, 3 days incubation, luminescence, read-out: GBM4 IC50
# Procedure: Cell culture medium was prepared from a NSA proliferation kit (Neurocult) and NeuroCult supplements (Stemcell Tech Cat. #05751) and treated with 20 μL of 10 μg/mL rh EGF, 10 μL of 10 μg/mL rh bFGF and 10 μL of 0.2% Heparin. In this medium, human glioblastoma cells were cultured in ultra-low attachment tissue culture flasks until 1×10^6 cells ml was achieved (GBM4 and GBM8 are distinct neurosphere cell cultures derived from these human patient tissues). GBM4 and GBM8 cells were dissociated and 10 mL of media containing 4000 human glioblastoma cells per 90 μL were transferred to an ultra-low binding 96-well plate and incubated at 37° C. overnight. On the following day, 10 μL of a 1% DMSO solution of test compound in assay medium was added to wells containing the cell suspension and the mixture incubated at 37° C. for 3 days. At this time, the plate was removed from the incubator and allowed to reach room temperature. After about 30 minutes, 50 μL of Cell Titer Glo solution was added to each well and the plate shaken for 1 minute at low speed. After 10 minutes luminescence was recorded using a Tecan Safire2 reader.
# Reduction in luminescence compared to DMSO only control wells was used to determine the percentage inhibition of cell growth. IC50s were calculated using the % inhibition of luminescence for serial dilutions of compounds fitted to a 4-parameter fit within the Prism (San Diego) curve fitting program. Tables 1 (compounds 3-188) and 2 (compounds 190-212) show the GBM4 IC50 and GBM8 IC50 for compounds described herein.
row,IC50 [nM],SMILES
1,< 500,"Cc1cc(NCCCN)nc(NC(=O)Nc2ccc3ccccc3c2)n1 [Compound 4, 1-(4-((3-aminopropyl)amino)-6-methylpyrimidin-2-yl)-3-(naphthalen-2-yl)urea]"
2,< 500,"Cc1cc(NCCCN(C)C)nc(NC(=O)Nc2ccc3ccccc3c2)n1 [Compound 3, 1-(4-((3-(dimethylamino)propyl)amino)-6-methylpyrimidin-2-yl)-3-(naphthalen-2-yl)urea]"

# Same assay, conditions: Table 3, GBM4 cells, read-out: GBM4 IC50 (Cytotoxicity)
row,SMILES,IC50 [nM]
1,CCNc1cc(C)nc(NC(=O)Nc2ccc3ccccc3c2)n1 [Compound 19],60
2,"Cc1cc(NCCNS(C)(=O)=O)nc(NC(=O)Nc2ccc3ccccc3c2)n1 [Compound 36, N-(2-((6-methyl-2-(3-(naphthalen-2-yl)ureido)pyrimidin-4-yl)amino)ethyl)methanesulfonamide]",40
3,"CC(=O)NCCNc1cc(C)nc(NC(=O)Nc2ccc3ccccc3c2)n1 [Compound 35, N-(2-((6-methyl-2-(3-(naphthalen-2-yl)ureido)pyrimidin-4-yl)amino)ethyl)acetamide]",140
